For one data set, the system named is IL-1β. The data set is described as follows: Ex vivo cytokine induction, IL-1β by sandwich ELISA (Example 8). It counts as cell-based, human. Particulars: for relative induction of IL-1β: level induced with MPL immunostimulant assigned a value of 1. How it is done:
(§1) The effects of Compound II on the elaboration of TNF-α and IL-1β was measured under ex vivo conditions on human peripheral blood mononuclear cells. MPL® immunostimulant and Compound II were formulated in aqueous solutions of 0.2% TEoA/WFI.
(§2) Human whole blood was used to evaluate the ability of glycolipids (AGPS) to induce proinflammatory cytokines. Human whole blood is collected into heparinized tubes and 0.45 ml of whole blood is admixed with 0.05 ml phosphate buffered saline (PBS, pH 7.4) containing the glycolipid (i.e., the test compounds). The tubes are incubated for 4 hr at 37° C. on a shaker apparatus. The samples are then diluted with 1.5 ml sterile PBS and centrifuged. The supernatants are removed and analyzed for […] TNF-α and IL-1β by sandwich ELISA using R&D Systems' Quantikine immunoassay kits for human TNF-α and IL-1β.

The next data set in a line: Rabbit pyrogen test. It counts as in vivo, rabbits. The settings on record: for Pyrogenicity (total rise of 3 rabbits): total rise of 3 rabbits following i.v. 10 μg/Kg dose, solubilized in 10% EtOH/WFI, diluted with 5% dextrose in water. The source says: In an effort to obtain an immunostimulant that has low pyrogenicity, synthetic molecules have been prepared which share structural similarities with the MPLO immunostimulant. These novel molecules which are collectively called aminoalkyl glucosaminide phosphates (AGPs), consist of an acylated […] moiety linked to an acylated aminoalkyl group (Johnson et al. (1999) Bioorg. Med. Chem. Lett. 9: 2273-2278; PCTAWO98/50399 and references therein). […] The substitution of different chemical moieties within the aminoalkyl structures was designed into the AGPs in anticipation of optimizing stability and solubility properties. Thus the AGPs can be broadly separated into several families based on the structure of their aminoalkyl groups. After initial biological evaluation, it became apparent that the aminoalkyl motifs could dramatically affect the pyrogenic properties of the AGPs (see U.S. patent application Ser. No. 09/074,720 filed May 7, 1998, and U.S. Pat. Nos. 6,113,918 and 6,303,347). As part of the initial screening process of the synthetic adjuvant compounds, rabbit pyrogenicity data was determined. […] Here we report on studies of the adjuvant properties of a class of AGPs which induce minimal activity in both the rabbit pyrogen test and the ex vivo cytokine assay.

The next data set has as its system TNF-α. The experiment in a line: Ex vivo cytokine induction, TNF-α by sandwich ELISA (Example 8). It counts as cell-based. Particulars: human blood cells, 4 hr at 37° C. The protocol:
as §1, §2
For orientation: ELISA stands for enzyme-linked immunosorbent assay.

The subject of data set [1] is hemagglutinin protein in FluZone influenza vaccine. The experiment in a line: Adjuvant activity towards hemagglutinin protein in FluZone influenza vaccine, FluZone ELISA (Example 5). Particulars: for Serum Titers IgG / Serum Titers IgG1 / Serum Titers IgG2a / Serum Titers IgG2b: s.c. 0.2 μg hemagglutinin in FluZone + 20 μg adjuvant day 0 and 14, pooled sera of 5 mice 14 days post secondary.
Protocol: Groups of BALB/c mice (Jackson Laboratories Bar Harbor, Me.) 6-8 weeks old were injected subcutaneous with 0.2 μg hemagglutinin protein in FluZone influenza vaccine (Connaught Laboratories, Swiftwater, Pa.) ±20 μg adjuvant (MPL® immunostimulant orCompound II) on day 0 and day 14. […] The nonimmune controls were not vaccinated. The initial dilutions used on sera from test groups was 1:1600.

Another data set concerns HBsAg. The data set is described as follows: Adjuvant activity towards HBsAg, IgG1 and IgG2a isotype titers by ELISA (Example 6). It counts as in vivo, BALB/c mice. The settings on record: for Serum Titers IgG1 / Serum Titers IgG2a: s.c. 2.0 μg HBsAg + 25 μg adjuvant day 0 and 21, pooled sera 21 days post secondary; for titers to HBsAg, in words: versus control group receiving antigen in PBS / positive control MPL. The protocol: Groups of BALB/c mice injected subcutaneous with 2.0 μg HBsAg(Rhein Americana, & Rhein Biotech) ±25 μg adjuvant (MPLO immunostinulant orCompound II) on day 0 and day 21. IgG1 and IgG2a isotype titers to HBsAg were determined by ELISA from pooled sera collected 21 days post secondary (Table 3). The nonimmune controls were not vaccinated.

The subject of data set [2] is HBsAg (Hepatitis B Surface Antigen). The experiment in a line: Adjuvant activity towards HBsAg, serum titers by ELISA (Example 4). Particulars: for Serum Titers IgG / Serum Titers IgG1 / Serum Titers IgG2a / Serum Titers IgG2b: s.c. 2 μg HBsAg + 20 μg adjuvant day 0 and 21, pooled sera (5 mice/group) 21 days post-secondary. It counts as in vivo, BALB/c mice. The protocol:
Vaccines were prepared by mixing the adjuvant-containing TEoA (triethanolamine) formulations with recombinant HBsAg. Titers to HBsAg were determined by ELISA from pooled sera (5 mice/group) collected 21 days post-secondary vaccination (Table 1). The nonimmune controls were not vaccinated.

Data set [3] concerns Inducible Nitric Oxide Synthase (iNOS). The data set is described as follows: iNOS induction in IFN-γ primed J774 murine macrophages, Greiss reagent nitrite release (Example 9). It counts as cell-based. The settings on record: IFN-γ primed J774 cells. How it is done:
This example illustrates the effects of various glycolipids on iNOS induction in J774 murine macrophages. The murine macrophage cell line J774 can be primed by IFN-γ in vitro and is very responsive to subsequent LPS stimulation of iNOS upregulation as measured by a standard Greiss reagent ELISA assay procedure. The assay utilizes J774 cells seeded at 1×10^6/mL with 30 mL/flask and with IFN-γ added at 100 units/mL for 16-24 hrs. Cells are then harvested and washed and resuspended at 2×10^5/well in a 96-well plate and allowed to adhere. Glycolipid compounds are serially diluted into the wells for a test group and the resulting cultures are incubated for another 36-40 hrs before culture supernatants are collected from Greiss reagent analysis of nitrite release (Green et al. (1982) Anal. Biochem. 126: 131-138). Nitrite content closely parallels iNOS function.
Potency was determined as the concentration (ng/mL) of glycolipid in culture capable of inducing one-half maximal induction of nitrite (ED50). The lower the ED50 number, the greater the potency for iNOS induction. The ED50 was cacluated according to methods set out in Johnson et al., (1999) J Med Chem. 42: 4640-4649.

The conditions of data set [4]: cited from earlier work.
Setting [5] is: versus control sera receiving antigen alone.

The source of these data is patent US6525028B1, “Immunoeffector compounds” (Corixa Corporation, priority 2002, dated 2003).

Entries after “also recorded” stand apart in the source; their conditions may differ. Structures can show the parent of a compound that is named as a salt.

In the case of `CCCCCCCCCCCCCC(=O)O[C@H](CCCCCCCCCCC)CC(=O)N[C@H]1[C@H](OC[C@@H]2CCCN2C(=O)C[C@@H](CCCCCCCCCCC)OC(=O)CCCCCCCCCCCCC)O[C@H](CO)[C@@H](OP(=O)(O)O)[C@@H]1OC(=O)C[C@@H](CCCCCCCCCCC)OC(=O)CCCCCCCCCCCCC` [Compound II, N-[(R)-3-tetradecanoyloxytetradecanoyl]-(S)-2-pyrrolidinylmethyl 2-deoxy-4-O-phosphono-2-[(R)-3-tetradecanoyloxytetradecanoylamino]-3-O-[(R)-3-tetradecanoyloxytetradecanoyl]-β-D-glucopyranoside triethylammonium salt], the “induction of IL-1β, in words” value in the data set on IL-1β (ex vivo, human blood cells, 4 hr at 37° C., Compound II at 1, 5 and 10 μg/ml) was “did not produce detectable levels of IL-1β; also recorded: without inducing detectable levels”. Besides, the “relative induction of IL-1β” value in the data set on IL-1β was ≤ 0.05. In addition, in “Rabbit pyrogen test” (i.v. 10 μg/kg), the “fever response in the rabbit pyrogen test, in words” value is recorded as “apparent lack of fever”. Moreover, in “Rabbit pyrogen test”, the “Pyrogenicity (total rise of 3 rabbits)” value stood at 0.3 °C. Besides, the “induction of TNF-α, in words” value in the data set on TNF-α (Compound II at 1, 5 and 10 μg/ml) is reported as “did not produce levels of TNF-α that could be detected; also recorded: without inducing detectable levels”. Also, in data set [1], the “Serum Titers IgG” value is reported as 51,200, the “Serum Titers IgG1” value was 102,400, the “Serum Titers IgG2a” value is 25,600 and the “Serum Titers IgG2b” value was determined as 6400. Also, the “titers to FluZone, in words” value in data set [1] (setting [5]) is given as “significantly higher than control sera receiving antigen alone”. Moreover, in the data set on HBsAg, the “Serum Titers IgG1” value is 32,000; the “Serum Titers IgG2a” value is reported as 2,048,000; the “titers to HBsAg, in words” value is recorded as “increased titers compared to the control group”. Moreover, in data set [2], the “Serum Titers IgG” value is listed as 409,600, the “Serum Titers IgG1” value is listed as 204,800, the “Serum Titers IgG2a” value is reported as 409,600 and the “Serum Titers IgG2b” value was 51,200. The “anti-HBsAg responses (serum titers), in words” value in data set [2] (setting [5]) is reported as “significantly higher than control sera receiving antigen alone”.

On to “Monophosphoryl lipid A [MPL® immunostimulant, reference compound]”, for which, in the data set with IL-1β, the “relative induction of IL-1β” value amounted to 1. Moreover, in the data set “Rabbit pyrogen test”, the “Pyrogenicity (total rise of 3 rabbits)” value is 2-3 °C. Also, the “concentration effective at inducing TNF-α” value in the data set on TNF-α is 100 to 10,000 ng/mL. Besides, in data set [3], the “iNOS induction / nitrite elaboration, in words” value was “high levels of nitrite elaboration”. In addition, in data set [1], the “Serum Titers IgG” value is reported as 102,400, the “Serum Titers IgG1” value is recorded as 102,400, the “Serum Titers IgG2a” value was 25,600 and the “Serum Titers IgG2b” value is recorded as 12,800. In addition, the “dose that can be safely administered to humans” value in data set [4] (humans) was “at least 20 μg/kg”. Moreover, the “dose levels at which increases in temperature, flu-like symptoms, increasing heart rate and modest decreases in blood pressure can occur” value in data set [4] (some patients) is ≥ 0.01 mg/kg. In the data set with HBsAg, the “Serum Titers IgG1” value is reported as 128,000 and the “Serum Titers IgG2a” value is recorded as 1,024,000. Besides, in data set [2], the “Serum Titers IgG” value is given as 409,600, the “Serum Titers IgG1” value is recorded as 204,800, the “Serum Titers IgG2a” value was 204,800 and the “Serum Titers IgG2b” value is on record as 51,200.

Turning to “N-[(R)-3-tetradecanoyloxytetradecanoyl]-(S)-2-pyrrolidinylmethyl 2-deoxy-4-O-phosphono-2-[(R)-3-tetradecanoyloxytetradecanoylamino]-3-O-[(R)-3-tetradecanoyloxytetradecanoyl]-β-D-glucopyranoside triethylammonium salt [Compound II]”, in the data set on HBsAg, the “titers to HBsAg, in words” value was “titers equivalent to the positive controls”.
